Source: patent US9249125B2, “Pyrazole derivatives as p38 MAP inhibitors” (RESPIVERT LIMITED, priority 2012, dated 2016)

Columns and labels:
RSV A2 = experiment: RSV induced F-protein expression in primary bronchial epithelial cells; type: cell-based, respiratory syncytical virus; conditions: for RSV induced F-protein in HBECs % Inhibition Observed: screened at concentrations up to 0.04 μg/mL; for IC50: human respiratory syncytial virus, Primary bronchial epithelial cell, read-out: RSV induced F-protein in HBECs IC50
Experimental: Normal human bronchial epithelial cells (NHBEC) grown in 96 well plates are infected with RSV A2 (Strain A2, HPA, Salisbury, UK) at an MOI of 0.001 in the LHC8 Media:RPMI-1640 (50:50) containing 15 mM magnesium chloride and incubated for 1 hr at 37° C. for adsorption. The cells are then washed with PBS (3×200 μL), fresh media (200 μL) is added and incubation continued for 4 days. Where appropriate, cells are pre-incubated with the compound or DMSO for 2 hr, and then added again after washout of the virus.
The cells are fixed with 4% formaldehyde in PBS solution (50 μL) for 20 min, washed with WB (3×200 μL), (washing buffer, PBS including 0.5% BSA and 0.05% Tween-20) and incubated with blocking solution (5% condensed milk in PBS) for 1 hr. Cells are then washed with WB (3×200 μL) and incubated for 1 hr at RT with anti-RSV (2F7) F-fusion protein antibody (40 μL) (mouse monoclonal, lot 798760, Cat. No. ab43812, Abcam) in 5% BSA in PBS-tween. After washing, cells are incubated with an HRP-conjugated secondary antibody solution (50 μL) in 5% BSA in PBS-Tween (lot 00053170, Cat. No. P0447, Dako) and then TMB substrate (50 μL) (substrate reagent pack, lot 269472, Cat. No. DY999, R&D Systems, Inc.) was added. This reaction is stopped by the addition of 2N H2SO4 (50 μL) and the resultant signal is determined colorimetrically (OD: 450 nm with a reference wavelength of 655 nm) in a microplate reader (Varioskan® Flash, ThermoFisher Scientific).
Cells are then washed and a 2.5% crystal violet solution (50 μL) (lot 8656, Cat. No. PL7000, Pro-Lab Diagnostics) is applied for 30 min. After washing with WB, 1% SDS in distilled water (100 μL) is added to each well, and plates are shaken lightly on the shaker for 1 hr prior to reading the absorbance at 595 nm. The measured OD450-655 readings are corrected to the cell number by dividing the OD450-655 by the OD595 readings. The percentage inhibition for each well is calculated and the IC50 value is calculated from the concentration-response curve generated from the serial dilutions of compound.

p38 MAPKα = p38 MAPKα (Homo sapiens (Human), UniProt Q16539); experiment: p38 MAPKα enzyme inhibition (FRET, Z-LYTE); type: biochemical
Chain of p38 MAPKα (Q16539 whole entry): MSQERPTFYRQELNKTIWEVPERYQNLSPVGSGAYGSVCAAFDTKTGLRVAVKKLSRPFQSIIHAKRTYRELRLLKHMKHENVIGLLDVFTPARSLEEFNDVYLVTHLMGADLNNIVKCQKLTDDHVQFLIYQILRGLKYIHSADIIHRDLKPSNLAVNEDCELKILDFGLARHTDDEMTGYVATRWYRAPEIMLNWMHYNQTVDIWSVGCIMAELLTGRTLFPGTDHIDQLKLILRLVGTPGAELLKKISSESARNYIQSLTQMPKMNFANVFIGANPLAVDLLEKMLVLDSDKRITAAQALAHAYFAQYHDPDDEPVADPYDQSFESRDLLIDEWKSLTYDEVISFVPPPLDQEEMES

HRV16 = HRV16 induced CPE in MRC5 cells; type: cell-based, human rhinovirus; conditions: for IC50: Human rhinovirus sp., HRV16, MRC5, read-out: HRV induced CPE in MRC5 Cells IC50; for HRV induced CPE in MRC5 Cells % Inhibition Observed: screened at concentrations up to 0.32 ng/mL
Experimental: The supernatants are aspirated, and then fresh media added followed by incubation for 4 days. Where appropriate, cells are pre-incubated with compound or DMSO for 2 hr, and the compounds and DMSO added again after washout of the virus.
Supernatants are aspirated and incubated with methylene blue solution (100 μL, 2% formaldehyde, 10% methanol and 0.175% Methylene Blue) for 2 hr at RT. […] The percentage inhibition for each well is calculated. The IC50 value is calculated from the concentration-response curve generated by the serial dilutions of the test compounds.

[1] = tested on: LPS-induced airways neutrophilia in mice; experiment: LPS-induced neutrophil accumulation in mice; type: in vivo; conditions: Test Substance at 0.2 mg/mL, intra tracheal, dosed 8 hr pre-LPS challenge
Experimental: Non-fasted Balb/c mice are dosed by the intra tracheal route with either vehicle, or the test substance at the indicated times (within the range 2-8 hr) before stimulation of the inflammatory response by application of an LPS challenge. At T=0, mice are placed into an exposure chamber and exposed to LPS (7.0 mL, 0.5 mg/mL solution in PBS) for 30 min). After a further 8 hr the animals are anesthetized, their tracheas cannulated and BALF extracted by infusing and then withdrawing from their lungs 1.0 mL of PBS via the tracheal catheter. Total and differential white cell counts in the BALF samples are measured using a Neubaur haemocytometer. Cytospin smears of the BALF samples are prepared by centrifugation at 200 rpm for 5 min at RT and stained using a DiffQuik stain system (Dade Behring). Cells are counted using oil immersion microscopy. Data for neutrophil numbers in BAL are shown as mean±S.E.M. (standard error of the mean). The percentage inhibition of neutrophil accumulation is calculated for each treatment relative to vehicle treatment.

PBMC cells = experiment: Cell mitosis assay; type: cell-based, human
Experimental: Peripheral blood mononucleocytes (PBMCs) from healthy subjects are separated from whole blood (Quintiles, London, UK) using a density gradient (Histopaque-1077, Sigma-Aldrich, Poole, UK). The PBMCs (3 million cells per sample) are subsequently treated with 2% PHA (Sigma-Aldrich, Poole, UK) for 48 hr, followed by a 20 hr exposure to varying concentrations of test compounds. At 2 hr before collection, PBMCs are treated with demecolcine (0.1 μg/mL) (Invitrogen, Paisley, UK,) to arrest cells in metaphase. To observe mitotic cells, PBMCs are permeabilised and fixed by adding Intraprep (50 μL) (Beckman Coulter, France), and stained with anti-phospho-histone 3 (0.26 ng/L) (#9701; Cell Signalling, Danvers, Mass.) and propidium iodide (1 mg/mL) (Sigma-Aldrich, Poole, UK,) as previously described (Muehlbauer P. A. and Schuler M. J., Mutation Research, 2003, 537:117-130). Fluorescence is observed using an ATTUNE flow cytometer (Invitrogen, Paisley, UK), gating for lymphocytes.

cSrc = cSrc (Homo sapiens (Human), UniProt P12931); experiment: Enzyme binding assay (Kinomescan) cSrc; conditions: read-out: % Inhibition for kinase binding at 500 nM cSrc
Chain of cSrc (P12931 whole entry, looked up): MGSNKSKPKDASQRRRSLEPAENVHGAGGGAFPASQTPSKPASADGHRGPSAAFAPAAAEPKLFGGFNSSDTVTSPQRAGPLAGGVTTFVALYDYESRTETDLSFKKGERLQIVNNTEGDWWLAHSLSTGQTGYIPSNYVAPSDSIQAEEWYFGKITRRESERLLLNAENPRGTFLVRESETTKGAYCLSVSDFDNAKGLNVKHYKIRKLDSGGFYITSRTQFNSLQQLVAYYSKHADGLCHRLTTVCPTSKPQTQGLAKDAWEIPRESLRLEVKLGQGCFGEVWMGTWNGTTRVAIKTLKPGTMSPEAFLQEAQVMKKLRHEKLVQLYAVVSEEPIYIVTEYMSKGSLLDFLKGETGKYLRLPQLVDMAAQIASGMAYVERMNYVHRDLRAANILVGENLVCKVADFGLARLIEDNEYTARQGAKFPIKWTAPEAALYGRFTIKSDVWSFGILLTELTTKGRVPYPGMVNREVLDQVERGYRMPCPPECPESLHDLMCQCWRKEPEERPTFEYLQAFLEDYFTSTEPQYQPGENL
Experimental: These assays were conducted by DiscoverX (formerly Ambit; San Diego, Calif.). The percentage inhibition produced by incubation with a test compound is calculated relative to the non-inhibited control.

SMILES | RSV induced F-protein in HBECs % Inhibition Observed (RSV A2) | IC50 (p38 MAPKα) | Mitosis Assay % inhibition in PBMC cells at 5 μg/mL (PBMC cells) | further results
Cc1ccc(-n2nc(C(C)(C)C)cc2NC(=O)Nc2ccc(Oc3ccnc(Nc4ccc5ncn(C)c5c4)n3)c3ccccc23)cc1 [Example 31, 1-(3-(tert-butyl)-1-(p-tolyl)-1H-pyrazol-5-yl)-3-(4-((2-((1-methyl-1H-benzo[d]imidazol-6-yl)amino)pyrimidin-4-yl)oxy)naphthalen-1-yl)urea] | 73% | 33 nM | – | –
Cc1cc(Nc2nccc(Oc3ccc(NC(=O)Nc4cc(C(C)(C)C)nn4-c4cccc(OCCN5CCOCC5)c4)c4ccccc34)n2)cc2cn[nH]c12 [Example 56, 1-(3-(tert-butyl)-1-(3-(2-morpholinoethoxy)phenyl)-1H-pyrazol-5-yl)-3-(4-((2-((7-methyl-1H-indazol-5-yl)amino)pyrimidin-4-yl)oxy)naphthalen-1-yl)urea] | – | 46 nM | – | IC50 (HRV16): 6.7 nM; % Inhibition of neutrophil accumulation in BAL [1]: 38%; Neutrophil numbers in BAL (+/−SEM) [1]: 10.2 ± 1.9 ×10^5/mL
Cc1ccc(-n2nc(C(C)(C)C)cc2NC(=O)Nc2ccc(Oc3ccnc(Nc4ccc5[nH]ncc5c4)n3)c3ccccc23)cc1 [Example 22, 1-(4-((2-((1H-indazol-5-yl)amino)pyrimidin-4-yl)oxy)naphthalen-1-yl)-3-(3-(tert-butyl)-1-(p-tolyl)-1H-pyrazol-5-yl)urea] | – | 56 nM | 52.7% | IC50 (RSV A2): 4.6 nM; % Inhibition of neutrophil accumulation in BAL [1]: 57%; Neutrophil numbers in BAL (+/−SEM) [1]: 7.0 ± 1.2 ×10^5/mL
Cc1ccc(-n2nc(C(C)(C)C)cc2NC(=O)Nc2ccc(Oc3ccnc(Nc4ccc5c(c4)ncn5C)n3)c3ccccc23)cc1 [Example 4, 1-(3-(tert-Butyl)-1-(p-tolyl)-1H-pyrazol-5-yl)-3-(4-((2-((1-methyl-1H-benzo[d]imidazol-5-yl)amino)pyrimidin-4-yl)oxy)naphthalen-1-yl)urea] | 96% | 19 nM | – | –
Cc1ccc(-n2nc(C(C)(C)C)cc2NC(=O)Nc2ccc(Oc3ccnc(Nc4ccc5c(ccn5C)c4)n3)c3ccccc23)cc1 [Example 18, 1-(3-(tert-butyl)-1-(p-tolyl)-1H-pyrazol-5-yl)-3-(4-((2-((1-methyl-1H-indol-5-yl)amino)pyrimidin-4-yl)oxy)naphthalen-1-yl)urea] | 56% | 1360 nM | – | –
Cc1ccc(-n2nc(C(C)(C)C)cc2NC(=O)Nc2ccc(Oc3ccnc(Nc4ccc5scnc5c4)n3)c3ccccc23)cc1 [Example 34, 1-(4-((2-(benzo[d]thiazol-5-ylamino)pyrimidin-4-yl)oxy)naphthalen-1-yl)-3-(3-(tert-butyl)-1-(p-tolyl)-1H-pyrazol-5-yl)urea] | 74% | 308 nM | – | –
Cc1ccc(-n2nc(C(C)(C)C)cc2NC(=O)Nc2ccc(Oc3ccnc(Nc4ccc5cn[nH]c5c4)n3)c3ccccc23)cc1 [Example 24, 1-(4-((2-((1H-indazol-6-yl)amino)pyrimidin-4-yl)oxy)naphthalen-1-yl)-3-(3-(tert-butyl)-1-(p-tolyl)-1H-pyrazol-5-yl)urea] | 45% | 245 nM | – | –
Cc1ccc(-n2nc(C(C)(C)C)cc2NC(=O)Nc2ccc(Oc3ccnc(Nc4ccc5[nH]cnc5c4)n3)c3ccccc23)cc1 [Example 30, 1-(4-((2-((1H-benzo[d]imidazol-5-yl)amino)pyrimidin-4-yl)oxy)naphthalen-1-yl)-3-(3-(tert-butyl)-1-(p-tolyl)-1H-pyrazol-5-yl)urea] | 57% | 89 nM | – | –
COc1ccc(-n2nc(C(C)(C)C)cc2NC(=O)Nc2ccc(Oc3ccnc(Nc4ccc5[nH]ncc5c4)n3)c3ccccc23)cc1 [Example 40, 1-(4-((2-((1H-indazol-5-yl)amino)pyrimidin-4-yl)oxy)naphthalen-1-yl)-3-(3-(tert-butyl)-1-(4-methoxyphenyl)-1H-pyrazol-5-yl)urea] | – | 68 nM | 30.5% | IC50 (RSV A2): 4.8 nM
Cc1ccc(-n2nc(C(C)(C)C)cc2NC(=O)Nc2ccc(Oc3ccnc(Nc4ccc5ncsc5c4)n3)c3ccccc23)cc1 [Example 35, 1-(4-((2-(benzo[d]thiazol-6-ylamino)pyrimidin-4-yl)oxy)naphthalen-1-yl)-3-(3-(tert-butyl)-1-(p-tolyl)-1H-pyrazol-5-yl)urea] | 71% | 439 nM | – | HRV induced CPE in MRC5 Cells % Inhibition Observed (HRV16): 100%
Cc1ccc(-n2nc(C(C)(C)C)cc2NC(=O)Nc2ccc(Oc3ccnc(Nc4cccc5cc[nH]c45)n3)c3ccccc23)cc1 [Example 17] | 65% | 376 nM | – | –
CC(C)(C)c1cc(NC(=O)Nc2ccc(Oc3ccnc(Nc4ccc5[nH]ncc5c4)n3)c3ccccc23)n(-c2ccc(OCCN3CCOCC3)cc2)n1 [Example 12, 1-(4-((2-((1H-Indazol-5-yl)amino)pyrimidin-4-yl)oxy)naphthalen-1-yl)-3-(3-(tert-butyl)-1-(4-(2-morpholinoethoxy)phenyl)-1H-pyrazol-5-yl)urea] | – | 77 nM | 58.6% | inhibition at 0.5 µM (cSrc): 100%; HRV induced CPE in MRC5 Cells % Inhibition Observed (HRV16): 92%; % Inhibition of neutrophil accumulation in BAL [1]: 46%; Neutrophil numbers in BAL (+/−SEM) [1]: 7.6 ± 1.5 ×10^5/mL
Cc1ccc(-n2nc(C(C)(C)C)cc2NC(=O)Nc2ccc(Oc3cc(Nc4ccc5[nH]ncc5c4)ncn3)c3ccccc23)cc1 [Example 23, 1-(4-((6-((1H-indazol-5-yl)amino)pyrimidin-4-yl)oxy)naphthalen-1-yl)-3-(3-(tert-butyl)-1-(p-tolyl)-1H-pyrazol-5-yl)urea] | – | 30 nM | 70.7% | IC50 (HRV16): 3 nM
Cc1cc(Nc2nccc(Oc3ccc(NC(=O)Nc4cc(C(C)(C)C)nn4-c4ccc(=O)n(CCN5CCOCC5)c4)c4ccccc34)n2)cc2cn[nH]c12 [Example 89, 1-(3-(tert-butyl)-1-(1-(2-morpholinoethyl)-6-oxo-1,6-dihydropyridin-3-yl)-1H-pyrazol-5-yl)-3-(4-((2-((7-methyl-1H-indazol-5-yl)amino)pyrimidin-4-yl)oxy)naphthalen-1-yl)urea] | – | 47 nM | 26.7% | IC50 (HRV16): 9.6 nM
